From patent publication US20240270698A2, “NOVEL PYRIMIDINE DERIVATIVE AND USE THEREOF” (KOREA RESEARCH INSTITUTE OF CHEMICAL TECHNOLOGY, priority 2019, published 2024)
pIC50: −log10 of the molar value.

Experiments:
[1] = system: HS746T cancer cells; test: Anticancer activity, cell viability by CCK-8, HS746T; type: cell-based; conditions: 72 hours
Protocol: (§1) Compounds 1 to 119 synthesized in Example 1 according to the present disclosure were assayed for inhibitory activity against MLK3/LRRK2 enzymes and anticancer activity against HepG2/H[…] cancer cells, and the results are summarized in Table 1, below. Assay for anticancer activity was conducted as follows. HepG2 and H[…] cancer cells were purchased from the Korean Cell Line Bank and cultured according to the instruction provided thereby. One hundred μL of a culture of the cells were seeded at a density of 4,000 cells/well into 96-well plates. After 24 hours, the cells were treated with the compounds for 72 hours. Then, cell viability was assayed using CCK-8 and expressed as % of the control.

[2] = system: HepG2 cancer cells; test: Anticancer activity, cell viability by CCK-8, HepG2; type: cell-based; conditions: HepG2, 10 μM, 72 hours
Protocol: as §1

[3] = target: T1, human recombinant LRRK2 protein (Homo sapiens, UniProt Q5S007); test: LRRK2 kinase activity assay (Eurofins, gamma-33P-ATP, filtermat scintillation counting); type: biochemical; conditions: human recombinant LRRK2, 40 minutes at room temperature
T1 construct: purchased Eurofins
Protocol: (§2) Compounds 1 to 119 synthesized in Example 1 according to the present disclosure were assayed for inhibitory activity against MLK3/LRRK2 enzymes and anticancer activity against HepG2/HS746T cancer cells, and the results are summarized in Table 1, below.
(§3) Inhibitory activity against MLK3 and LRRK2 enzymes was evaluated in Eurofins. In brief, human recombinant MLK3 protein was mixed with the compounds in a reaction buffer (8 mM MOPS (pH 7.0), 0.2 mM EDTA, 0.33 mg/mL myelin basic protein, 5 mM DTT) to which a mixture of 10 mM magnesium acetate and gamma-33P-ATP was then added before incubation at room temperature for 120 minutes. Afterward, the reaction was terminated with 0.5% phosphoric acid. Ten μL of the total mixture was spotted onto a P30 filtermat which was then washed four times for 4 minutes with 0.425% phosphoric acid and once in methanol prior to scintillation counting. Values for the activity of MLK3 were expressed as % of the control. For the activity of LRRK2, human recombinant LRRK2 protein was mixed with the compounds in a reaction buffer (50 mM HEPES (pH 8.0), 0.2 mM EDTA, 0.01% Brij-35, 1% (w/v) BSA, 5 mM DTT, 250 uM substrate peptide RLGRDKYKTLRQIRQ) and then reacted with a mixture of 10 mM magnesium acetate and gamma-33P-ATP at room temperature for 40 minutes. Afterward, the reaction was terminated with 0.5% phosphoric acid. Ten μL of the total mixture was spotted onto a P30 filtermat which was then washed four times for 4 minutes with 0.425% phosphoric acid and once in methanol prior to scintillation counting. Values for the activity of LRRK2 were expressed as % of the control.

[4] = target: T2, human recombinant MLK3 protein (Homo sapiens, UniProt Q16584); test: MLK3 kinase activity assay (Eurofins, gamma-33P-ATP, filtermat scintillation counting); type: biochemical; conditions: human recombinant MLK3, 120 minutes at room temperature
T2 construct: purchased Eurofins
Protocol: as §2, §3

T2 sequence (Q16584 whole entry): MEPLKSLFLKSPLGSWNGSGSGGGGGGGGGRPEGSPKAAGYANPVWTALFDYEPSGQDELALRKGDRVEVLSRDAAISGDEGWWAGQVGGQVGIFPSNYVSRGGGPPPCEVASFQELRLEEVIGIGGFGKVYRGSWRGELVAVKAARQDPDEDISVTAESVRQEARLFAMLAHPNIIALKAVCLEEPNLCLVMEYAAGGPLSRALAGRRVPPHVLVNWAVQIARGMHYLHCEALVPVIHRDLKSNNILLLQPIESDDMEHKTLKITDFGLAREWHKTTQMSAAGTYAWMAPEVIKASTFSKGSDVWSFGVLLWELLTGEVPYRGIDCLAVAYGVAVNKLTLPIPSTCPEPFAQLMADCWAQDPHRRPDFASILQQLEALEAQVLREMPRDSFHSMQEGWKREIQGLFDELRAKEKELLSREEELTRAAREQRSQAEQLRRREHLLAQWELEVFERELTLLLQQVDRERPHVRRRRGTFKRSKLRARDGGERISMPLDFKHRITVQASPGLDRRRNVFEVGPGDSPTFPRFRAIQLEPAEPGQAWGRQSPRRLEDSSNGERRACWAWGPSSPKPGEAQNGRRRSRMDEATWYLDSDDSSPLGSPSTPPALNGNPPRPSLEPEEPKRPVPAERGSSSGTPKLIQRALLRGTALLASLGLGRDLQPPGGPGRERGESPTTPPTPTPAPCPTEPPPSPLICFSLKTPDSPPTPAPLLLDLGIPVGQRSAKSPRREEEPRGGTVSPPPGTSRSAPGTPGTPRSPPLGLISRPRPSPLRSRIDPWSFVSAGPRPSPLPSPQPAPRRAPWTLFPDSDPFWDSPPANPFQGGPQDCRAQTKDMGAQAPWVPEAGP
T1 sequence (Q5S007 whole entry): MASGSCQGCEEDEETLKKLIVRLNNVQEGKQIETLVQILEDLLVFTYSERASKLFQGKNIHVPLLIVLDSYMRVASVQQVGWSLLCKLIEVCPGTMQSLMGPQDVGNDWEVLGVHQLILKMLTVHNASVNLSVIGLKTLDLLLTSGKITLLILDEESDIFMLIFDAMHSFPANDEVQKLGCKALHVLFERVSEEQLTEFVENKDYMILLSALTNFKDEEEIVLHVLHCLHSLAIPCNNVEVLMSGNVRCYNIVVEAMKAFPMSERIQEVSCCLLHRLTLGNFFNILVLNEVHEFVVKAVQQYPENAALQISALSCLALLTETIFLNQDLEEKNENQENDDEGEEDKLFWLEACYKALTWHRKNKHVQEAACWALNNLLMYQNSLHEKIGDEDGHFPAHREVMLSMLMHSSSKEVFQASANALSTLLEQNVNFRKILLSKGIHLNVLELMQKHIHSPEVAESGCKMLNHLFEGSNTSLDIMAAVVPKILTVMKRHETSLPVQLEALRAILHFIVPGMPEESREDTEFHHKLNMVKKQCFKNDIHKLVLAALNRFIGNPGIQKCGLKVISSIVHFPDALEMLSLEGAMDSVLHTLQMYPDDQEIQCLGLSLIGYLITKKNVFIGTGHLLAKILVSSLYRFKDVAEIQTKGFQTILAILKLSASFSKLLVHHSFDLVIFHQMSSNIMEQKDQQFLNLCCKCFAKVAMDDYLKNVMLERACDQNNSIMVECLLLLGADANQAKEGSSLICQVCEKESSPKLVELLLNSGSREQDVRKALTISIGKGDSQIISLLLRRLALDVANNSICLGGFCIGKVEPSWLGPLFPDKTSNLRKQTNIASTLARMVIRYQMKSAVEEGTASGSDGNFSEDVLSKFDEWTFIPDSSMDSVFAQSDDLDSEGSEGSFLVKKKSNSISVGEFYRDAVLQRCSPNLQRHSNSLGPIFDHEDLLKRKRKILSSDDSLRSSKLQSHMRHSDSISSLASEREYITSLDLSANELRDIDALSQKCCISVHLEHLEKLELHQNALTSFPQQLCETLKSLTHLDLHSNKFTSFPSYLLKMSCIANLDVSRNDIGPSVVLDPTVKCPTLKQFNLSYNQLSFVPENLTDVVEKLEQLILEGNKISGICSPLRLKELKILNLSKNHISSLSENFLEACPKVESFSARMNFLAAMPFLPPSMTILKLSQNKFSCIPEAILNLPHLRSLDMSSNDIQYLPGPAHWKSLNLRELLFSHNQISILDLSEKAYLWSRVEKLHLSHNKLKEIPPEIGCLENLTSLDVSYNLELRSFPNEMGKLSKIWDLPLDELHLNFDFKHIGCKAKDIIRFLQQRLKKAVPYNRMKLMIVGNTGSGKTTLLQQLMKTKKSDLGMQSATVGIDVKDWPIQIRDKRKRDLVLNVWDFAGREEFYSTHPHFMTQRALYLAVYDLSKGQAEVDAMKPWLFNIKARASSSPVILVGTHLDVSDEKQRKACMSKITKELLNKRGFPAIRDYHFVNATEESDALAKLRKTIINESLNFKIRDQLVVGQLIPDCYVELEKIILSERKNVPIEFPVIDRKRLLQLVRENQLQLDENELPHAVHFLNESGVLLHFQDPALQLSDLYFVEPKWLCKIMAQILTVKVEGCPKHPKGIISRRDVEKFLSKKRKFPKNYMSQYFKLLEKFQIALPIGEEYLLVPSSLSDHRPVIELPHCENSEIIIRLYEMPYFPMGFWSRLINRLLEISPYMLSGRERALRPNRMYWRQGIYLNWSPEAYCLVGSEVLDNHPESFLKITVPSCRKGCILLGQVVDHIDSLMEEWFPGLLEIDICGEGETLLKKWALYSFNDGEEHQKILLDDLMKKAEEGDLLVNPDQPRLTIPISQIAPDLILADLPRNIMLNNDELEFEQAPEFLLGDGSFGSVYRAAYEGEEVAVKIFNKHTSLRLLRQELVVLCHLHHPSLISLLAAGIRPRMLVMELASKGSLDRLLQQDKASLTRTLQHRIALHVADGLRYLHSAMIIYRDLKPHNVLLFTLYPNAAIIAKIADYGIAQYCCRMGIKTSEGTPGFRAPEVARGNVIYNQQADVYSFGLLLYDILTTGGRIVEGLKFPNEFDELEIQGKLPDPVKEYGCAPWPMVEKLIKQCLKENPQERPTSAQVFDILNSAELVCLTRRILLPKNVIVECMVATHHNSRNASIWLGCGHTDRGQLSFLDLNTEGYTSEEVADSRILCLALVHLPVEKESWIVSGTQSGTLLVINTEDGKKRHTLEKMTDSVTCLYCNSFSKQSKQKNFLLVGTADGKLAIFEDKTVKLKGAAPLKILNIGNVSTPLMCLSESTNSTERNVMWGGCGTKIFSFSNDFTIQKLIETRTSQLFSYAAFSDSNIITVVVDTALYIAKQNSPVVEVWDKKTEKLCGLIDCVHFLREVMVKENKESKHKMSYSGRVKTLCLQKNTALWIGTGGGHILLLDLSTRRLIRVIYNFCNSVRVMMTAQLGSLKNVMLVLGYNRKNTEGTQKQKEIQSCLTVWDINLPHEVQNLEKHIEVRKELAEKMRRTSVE

CP(C)(=O)c1ccccc1Nc1nc(NCc2ccccc2)ncc1Cl [compound 14, (2-((2-(Benzylamino)-5-chloropyrimidin-4-yl)amino)phenyl) dimethylphosphine oxide]
Cell viability (% of Con. 10 μM) HS746T [1]: 110 % of Con. | Cell viability (% of Con. 10 μM) HepG2 [2]: 108 % of Con. | pIC50 [3]: < 6.00 | pIC50 [4]: < 6.00

CP(C)(=O)c1ccccc1Nc1nc(Nc2ccc3[nH]nc(-c4ccccc4)c3c2)ncc1Cl [compound 96, (2-((5-chloro-2-((3-phenyl-1H-indazol-5-yl)amino)pyrimidin-4-yl)amino)phenyl)dimethylphosphine oxide]
Cell viability (% of Con. 10 μM) HS746T [1]: 10 % of Con. | Cell viability (% of Con. 10 μM) HepG2 [2]: 15 % of Con. | pIC50 [3]: 8.00 to 9.00 | pIC50 [4]: 8.00 to 9.00

CP(C)(=O)c1ccccc1Nc1nc(Nc2ccc3[nH]nc(-c4cccc(C#N)c4)c3c2)ncc1Cl [compound 116, 3-(5-((5-Chloro-4-((2-(dimethylphosphoryl)phenyl)amino)pyrimidin-2-yl)amino)-1H-indazol-3-yl)benzonitrile]
Cell viability (% of Con. 10 μM) HS746T [1]: 19 % of Con. | Cell viability (% of Con. 10 μM) HepG2 [2]: 32 % of Con. | pIC50 [3]: 7.00 to 8.00 | pIC50 [4]: 8.00 to 9.00

COc1ccc(-c2n[nH]c3ccc(Nc4ncc(Cl)c(Nc5ccccc5P(C)(C)=O)n4)cc23)cc1F [compound 109]
Cell viability (% of Con. 10 μM) HS746T [1]: 25 % of Con. | Cell viability (% of Con. 10 μM) HepG2 [2]: 53 % of Con. | pIC50 [3]: 7.00 to 8.00 | pIC50 [4]: 8.00 to 9.00

CC1(C)NCCc2ccc(Nc3ncc(Cl)c(Nc4ccccc4P(C)(C)=O)n3)cc21 [compound 44, (2-((5-Chloro-2-((1,1-dimethyl-1,2,3,4-tetrahydroisoquinolin-7-yl)amino)pyrimidin-4-yl)amino)phenyl)dimethylphosphine oxide]
Cell viability (% of Con. 10 μM) HS746T [1]: 17 % of Con. | Cell viability (% of Con. 10 μM) HepG2 [2]: 53 % of Con. | pIC50 [3]: 8.00 to 9.00 | pIC50 [4]: 8.00 to 9.00

CP(C)(=O)c1ccccc1Nc1nc(Nc2ccc3[nH]nc(-c4ccc(OC(F)(F)F)cc4)c3c2)ncc1Cl [compound 110, (2-((5-Chloro-2-((3-(4-(trifluoromethoxy)phenyl)-1H-indazol-5-yl)amino)pyrimidin-4-yl)amino)phenyl)dimethylphosphine oxide]
Cell viability (% of Con. 10 μM) HS746T [1]: 12 % of Con. | Cell viability (% of Con. 10 μM) HepG2 [2]: 24 % of Con. | pIC50 [3]: 7.00 to 8.00 | pIC50 [4]: 8.00 to 9.00

CP(C)(=O)c1ccccc1Nc1nc(Nc2ccc3[nH]c(C(F)(F)F)nc3c2)ncc1Cl [compound 75, (2-((5-Chloro-2-((2-(trifluoromethyl)-1H-benzo[d]imidazol-5-yl)amino)pyrimidin-4-yl)amino)phenyl)dimethylphosphine oxide]
Cell viability (% of Con. 10 μM) HS746T [1]: 21 % of Con. | Cell viability (% of Con. 10 μM) HepG2 [2]: 28 % of Con. | pIC50 [3]: 8.00 to 9.00 | pIC50 [4]: 7.00 to 8.00

CP(C)(=O)c1ccccc1Nc1nc(Nc2ccc3[nH]nc(-c4ccc(O)cc4)c3c2)ncc1Cl [compound 108, (2-((5-chloro-2-((3-(4-hydroxyphenyl)-1H-indazol-5-yl)amino)pyrimidin-4-yl)amino)phenyl)dimethylphosphine oxide]
Cell viability (% of Con. 10 μM) HS746T [1]: 8 % of Con. | Cell viability (% of Con. 10 μM) HepG2 [2]: 67 % of Con. | pIC50 [3]: 7.00 to 8.00 | pIC50 [4]: 8.00 to 9.00

Cc1ccc(-c2n[nH]c3ccc(Nc4ncc(Cl)c(Nc5ccccc5P(C)(C)=O)n4)cc23)cc1Cl [compound 112, (2-((5-Chloro-2-((3-(3-chloro-4-methylphenyl)-1H-indazol-5-yl)amino)pyrimidin-4-yl)amino)phenyl)dimethylphosphine oxide]
Cell viability (% of Con. 10 μM) HS746T [1]: 7 % of Con. | Cell viability (% of Con. 10 μM) HepG2 [2]: 6 % of Con. | pIC50 [3]: 7.00 to 8.00 | pIC50 [4]: 8.00 to 9.00

CP(C)(=O)c1ccccc1Nc1nc(NC2CCCCC2)ncc1Cl [compound 16, (2-((5-Chloro-2-(cyclohexylamino)pyrimidin-4-yl)amino)phenyl) dimethylphosphine oxide]
Cell viability (% of Con. 10 μM) HS746T [1]: 64 % of Con. | Cell viability (% of Con. 10 μM) HepG2 [2]: 82 % of Con. | pIC50 [3]: < 6.00 | pIC50 [4]: < 6.00

Cc1cccc2sc(Nc3ncc(Cl)c(Nc4ccccc4P(C)(C)=O)n3)nc12 [compound 27, (2-((5-Chloro-2-((4-methylbenzo[d]thiazol-2-yl)amino)pyrimidin-4-yl)amino)phenyl)dimethylphosphine oxide]
Cell viability (% of Con. 10 μM) HS746T [1]: 74 % of Con. | Cell viability (% of Con. 10 μM) HepG2 [2]: 81 % of Con. | pIC50 [3]: < 6.00 | pIC50 [4]: 6.00 to 7.00

CC1(C)CCC(C)(C)c2cc(Nc3ncc(Cl)c(Nc4ccccc4P(C)(C)=O)n3)ccc21 [compound 7, (2-((5-Chloro-2-((5,5,8,8-tetramethyl-5,6,7,8-tetrahydronaphthalen-2-yl)amino)pyrimidin-4-yl)amino)phenyl)dimethylphosphine oxide]
Cell viability (% of Con. 10 μM) HS746T [1]: 103 % of Con. | Cell viability (% of Con. 10 μM) HepG2 [2]: 75 % of Con. | pIC50 [3]: 6.00 to 7.00 | pIC50 [4]: 6.00 to 7.00

CP(C)(=O)c1ccccc1Nc1nc(Nc2ccc3ncccc3c2)ncc1Cl [compound 18, (2-((5-Chloro-2-(quinolin-6-ylamino)pyrimidin-4-yl)amino)phenyl) dimethylphosphine oxide]
Cell viability (% of Con. 10 μM) HS746T [1]: 16 % of Con. | Cell viability (% of Con. 10 μM) HepG2 [2]: 32 % of Con. | pIC50 [3]: 8.00 to 9.00 | pIC50 [4]: 7.00 to 8.00

CP(C)(=O)c1ccccc1Nc1nc(Nc2cccc3[nH]ccc23)ncc1Cl [compound 68, (2-((2-((1H-Indol-4-yl)amino)-5-chloropyrimidin-4-yl)amino)phenyl)dimethylphosphine oxide]
Cell viability (% of Con. 10 μM) HS746T [1]: 64 % of Con. | Cell viability (% of Con. 10 μM) HepG2 [2]: 43 % of Con. | pIC50 [3]: 8.00 to 9.00 | pIC50 [4]: 7.00 to 8.00

CS(=O)(=O)N1CCC(Nc2nc(Nc3ccnc4c(F)cccc34)ncc2F)CC1 [compound 38, 5-Fluoro-N^2-(8-fluoroquinolin-4-yl)-N^4-(1-(methylsulfonyl)piperidin-4-yl)pyrimidine-2,4-diamine]
Cell viability (% of Con. 10 μM) HS746T [1]: 90 % of Con. | Cell viability (% of Con. 10 μM) HepG2 [2]: 73 % of Con. | pIC50 [3]: 6.00 to 7.00 | pIC50 [4]: < 6.00

CP(C)(=O)c1ccccc1Nc1nc(Nc2ccc3c(c2)CNCC3)ncc1Cl [compound 47, (2-((5-Chloro-2-((1,2,3,4-tetrahydroisoquinolin-7-yl)amino)pyrimidin-4-yl)amino)phenyl)dimethylphosphine oxide]
Cell viability (% of Con. 10 μM) HS746T [1]: 8 % of Con. | Cell viability (% of Con. 10 μM) HepG2 [2]: 24 % of Con. | pIC50 [3]: 8.00 to 9.00 | pIC50 [4]: 8.00 to 9.00

CN(C)c1ncc(F)c(NC2CCN(S(C)(=O)=O)CC2)n1 [compound 37, 5-Fluoro-N^2,N^2-dimethyl-N^4-(1-(methylsulfonyl)piperidin-4-yl) pyrimidine-2,4-diamine]
Cell viability (% of Con. 10 μM) HS746T [1]: 90 % of Con. | Cell viability (% of Con. 10 μM) HepG2 [2]: 100 % of Con. | pIC50 [3]: < 6.00 | pIC50 [4]: < 6.00

CP(C)(=O)c1ccccc1Nc1nc(Nc2ccc3cn[nH]c3c2)ncc1Cl [compound 64, (2-((2-((1H-Indazol-6-yl)amino)-5-chloropyrimidin-4-yl)amino)phenyl)dimethylphosphine oxide]
Cell viability (% of Con. 10 μM) HS746T [1]: 29 % of Con. | Cell viability (% of Con. 10 μM) HepG2 [2]: 23 % of Con. | pIC50 [3]: 8.00 to 9.00 | pIC50 [4]: 8.00 to 9.00

CP(C)(=O)c1ccccc1Nc1nc(Nc2ccc3c(c2)CCNC3)ncc1Cl [compound 49, (2-((5-Chloro-2-((1,2,3,4-tetrahydroisoquinolin-6-yl)amino)pyrimidin-4-yl)amino)phenyl)dimethylphosphine oxide]
Cell viability (% of Con. 10 μM) HS746T [1]: 0.3 % of Con. | Cell viability (% of Con. 10 μM) HepG2 [2]: 31 % of Con. | pIC50 [3]: 8.00 to 9.00 | pIC50 [4]: 8.00 to 9.00

CP(C)(=O)c1ccccc1Nc1nc(Nc2ccc3c(c2)CN(C(=O)C(F)(F)F)CC3)ncc1Cl [compound 46, 1-(7-((5-Chloro-4-((2-(dimethylphosphoryl)phenyl)amino)pyrimidin-2-yl)amino)-3,4-dihydroisoquinolin-2(1H)-yl)-2,2,2-trifluoroethan-1-one]
Cell viability (% of Con. 10 μM) HS746T [1]: 13 % of Con. | Cell viability (% of Con. 10 μM) HepG2 [2]: 26 % of Con. | pIC50 [3]: 8.00 to 9.00 | pIC50 [4]: 8.00 to 9.00
